Measured values from patent US20100323955A1, “METHODS FOR TREATING OBESITY AND OBESITY RELATED DISEASES AND DISORDERS” (AMYLIN PHARMACEUTICALS, INC., priority 2007, published 2010).

What was measured:
[1] = Example 4: amylin and phentermine in DIO rats, body weight and body composition; type: in vivo, rat; settings: after two weeks, FIG. 11C
Description: The combination of amylin and catecholaminergic agonist, phentermine, were also tested for effects on changes in body weight and body composition. Phentermine is classically referred to as a catecholaminergic agonist as it actually hits NA/5-HT receptors. DIO male rats were fattened and divided into four treatment groups, as described above. Each group was implanted with subcutaneous osmotic mini-pumps and/or inserted with an oral gavage, designed to deliver vehicle, phentermine (10 mg/kg/day), amylin (100 μg/kg/day) or phentermine (10 mg/kg/day)+amylin (100 μg/kg/day) for a 14 day period. The mini-pump contained either vehicle (50% DMSO in water) or amylin while the oral gavage administered either sterile water or phentermine Body weight was recorded daily and body composition was measured prior to and after drug treatment using NMR.

[2] = Example 8: 24-week randomized, double-blind clinical study of pramlintide and metreleptin in overweight and obese subjects; type: in vivo, human; settings: for rate of change in body weight, late rate (12-20 weeks): 24-week study, FIG. 24
Description: To evaluate inter alia the safety, tolerability and effect of the combination of an amylin agonist (pramlintide) and a leptin (metreleptin) on changes in body weight, a 24-week, randomized, double-blind, active-drug-controlled, multicenter study was conducted under USFDA approved protocols. Secondary objectives of the study were the determination of the pharmacokinetics of pramlintide and leptin, waist circumference, rate of change in body weight, and patient reported outcomes including for example without limitation perception of well-being related to weight change and mood. The study enrolled overweight and obese subjects with defined BMI ([…]), with enrollment statistics as provided in Table 2. […] Subjects treated with pramlintide/metreleptin lost an average of 25 pounds from the start of the 24-week study compared with an average of 17 pounds for subjects treated with pramlintide alone.
In an initial lead-in phase, all subjects received dietary instructions and treatment with pramlintide at 180 mcg BID for two weeks, followed by pramlintide at 360 mcg BID for two weeks. Subjects who completed the 4-week lead-in period and who lost 2-8 percent body weight during this period were eligible to continue the study. The term “enrolled” (Table 2) refers to subjects (N=177) receiving at least one dose of pramlintide during the lead-in period. The term “non-randomized” refers to subjects not continuing in the study past the lead-in period. The term “evaluable” refers to subjects who completed Visit 9 (Week 16) study procedures and adequately complied with the study protocol.
After the 4-week lead-in period, for the remaining 20 weeks of the study the subjects were randomized in a 2:2:1 ratio to one of three groups with BID treatment of 1) pramlintide 360 mcg/metreleptin 5 mg (“Leptin+Pramlintide”); 2) pramlintide 360 mcg/placebo (“Pramlintide”); or 3) metreleptin 5 mg/placebo (“Leptin”).

[3] = Example 5: amylin and rimonabant (CB-1 antagonist) in DIO rats, body weight and body composition; type: in vivo, rat; settings: after two weeks, FIG. 12C
Description: These rats were developed by Barry Levin from a line of Crl:CD®(SD)BR rats that are prone to become obese on a diet relatively high in fat and energy. They were housed individually in shoebox cages at 22 C in a 12/12-hour light dark cycle. […] Rats were habituated to oral gavage for 1 week prior to treatment. Rimonabant was administered at a range of doses (0.1, 0.3, 1.0, 3.0. 10 mg/kg/day) by oral gavage. Amylin (dissolved in 50% DMSO sterile water) or vehicle was administered by mini-pump (100 μg/kg/day). Rimonabant was always delivered just prior to lights out. Food intake and body weight were measured at 1 and 2 weeks post-treatment. Body composition was measured prior to and after drug treatment using NMR (Echo Medical Systems, Houston, Tex.). For body composition measurements, rats were briefly placed (˜1 min) in a well-ventilated plexiglass tube that was then inserted into a specialized rodent NMR machine. Rats were scanned prior to pump implantation and on the final day of the experiment. This enabled the calculation of changes in actual grams of fat and dry lean tissue (e.g., grams of body fat after treatment−grams of body fat at baseline=change in grams of body fat) and changes in % body composition for fat and dry lean tissue (e.g., % body fat after treatment−% body fat at baseline=change in % body fat).

[4] = Example 4: amylin and sibutramine in DIO rats, body weight and body composition; type: in vivo, rat; settings: after two weeks, FIG. 10C
Description: (§1) Rat amylin was dissolved in 50% DMSO in sterile water and sibutramine was dissolved in sterile water. Each group was implanted with subcutaneous osmotic mini-pumps designed to deliver vehicle, sibutramine (3 mg/kg/day) or amylin (100 μg/kg/day) for a 14 day period. Body weight and food intake were recorded daily. Body composition was measured prior to and after drug treatment using NMR (Echo Medical Systems, Houston, Tex.). For body composition measurements, rats were briefly placed (˜1 min) in a well-ventilated plexiglass tube that was then inserted into a specialized rodent NMR machine. Rats were scanned prior to pump implantation and on the final day of the experiment. This enabled the calculation of changes in actual grams of fat and dry lean tissue (e.g., grams of body fat after treatment−grams of body fat at baseline=change in grams of body fat) and changes in % body composition for fat and dry lean tissue (e.g., % body fat after treatment−% body fat at baseline=change in % body fat).

[5] = Example 3: serum leptin levels (immunoassay) in DIO prone and normal HSD rats after amylin; type: in vivo, rat; settings: amylin 100 μg/kg/day, 14 days, FIG. 8
Description: DIO prone and normal HSD rats were divided into three treatment groups. Two groups were implanted with subcutaneous osmotic mini-pumps (DURECT Corp., Cupertino, Calif.) designed to deliver vehicle or amylin (100 μg/kg/day) and the third group was pair-fed to the amount consumed by the amylin-treated group for a 14 day period. Serum leptin levels were determined by immunoassays using a commercial kit (Linco Research, Inc., St. Charles, Mo.). […] Thus, DIO prone rats are hyper-leptinemic.

[6] = Example 7: amylin and PYY(3-36) in DIO rats, body weight and body composition; type: in vivo, rat; settings: after two weeks, FIG. 16C
Description: as §1, with “Food intake and body weight” for “Rat amylin”, “was” for “was dissolved in 50% DMSO in sterile water and sibutramine was dissolved in sterile water. Each group was implanted with subcutaneous osmotic mini-pumps designed to deliver vehicle, sibutramine (3 mg/kg/day) or amylin (100 μg/kg/day) for a 14 day period. Body weight and food intake were”

[7] = Example 6: amylin and exendin-4 analog in DIO rats, body weight and body composition; type: in vivo, rat; settings: after two weeks, FIG. 15C
Description: […]. Prior to drug administration rats had typically attained a mean body weight of 500 g Exendin-4 analog was administered by minipump at a range of doses (0.3, 1, 3, 10, 30 μg/kg/day). Amylin (dissolved in 50% DMSO in water) or vehicle was administered by mini-pump (100 μg/kg/day). Body weight and food intake was recorded daily. Body composition was measured prior to and after drug treatment using NMR (Echo Medical Systems, Houston, Tex.). For body composition measurements, rats were briefly placed (˜1 min) in a well-ventilated plexiglass tube that was then inserted into a specialized rodent NMR machine. Rats were scanned prior to pump implantation and on the final day of the experiment. This enabled the calculation of changes in actual grams of fat and dry lean tissue (e.g., grams of body fat after treatment−grams of body fat at baseline=change in grams of body fat) and changes in % body composition for fat and dry lean tissue (e.g., % body fat after treatment−% body fat at baseline=change in % body fat).

CC(C)(N)Cc1ccccc1 [phentermine, reference compound]
changes in body protein (lean (protein) mass) [1]: unchanged or tended to be lost

CC[C@H](C)[C@H](NC(=O)[C@@H]1CCCN1C(=O)CNC(=O)[C@H](Cc1ccccc1)NC(=O)[C@H](CC(N)=O)NC(=O)[C@H](CC(N)=O)NC(=O)[C@H](CO)NC(=O)[C@H](CO)NC(=O)[C@H](Cc1c[nH]cn1)NC(=O)[C@@H](NC(=O)[C@H](CC(C)C)NC(=O)[C@H](Cc1ccccc1)NC(=O)[C@H](CC(N)=O)NC(=O)[C@H](C)NC(=O)[C@H](CC(C)C)NC(=O)[C@H](CCCNC(=N)N)NC(=O)[C@H](CCC(N)=O)NC(=O)[C@@H](NC(=O)[C@H](C)NC(=O)[C@@H]1CSSC[C@H](NC(=O)[C@@H](N)CCCCN)C(=O)N[C@@H](CC(N)=O)C(=O)N[C@@H]([C@@H](C)O)C(=O)N[C@@H](C)C(=O)N[C@@H]([C@@H](C)O)C(=O)N1)[C@@H](C)O)C(C)C)C(=O)N[C@@H](CC(C)C)C(=O)N1CCC[C@H]1C(=O)N1CCC[C@H]1C(=O)N[C@H](C(=O)N[C@@H](CC(N)=O)C(=O)N[C@H](C(=O)NCC(=O)N[C@@H](CO)C(=O)N[C@@H](CC(N)=O)C(=O)N[C@H](C(=O)N[C@@H](Cc1ccc(O)cc1)C(N)=O)[C@@H](C)O)C(C)C)[C@@H](C)O [pramlintide, ^25,28,29Pro-h-amylin]
Mean Change in Body Weight (kg) over lead-in period ([2]; 4-week lead-in, all subjects received pramlintide 180 then 360 mcg BID, columns name the later randomization groups): -3.65 kg | rate of change in body weight, late rate (12-20 weeks) [2]: approached a late rate of zero | body weight reduced on average at the end of the 24-week study ([2]; overweight and obese subjects, pramlintide 360 mcg BID, metreleptin 5 mg BID, p<0.001): 8.4%

Cc1c(C(=O)NN2CCCCC2)nn(-c2ccc(Cl)cc2Cl)c1-c1ccc(Cl)cc1 [rimonabant, reference compound]
changes in body protein (lean (protein) mass) [3]: relatively equivalent increase in lean (protein) mass

CC(C)CC(N(C)C)C1(c2ccc(Cl)cc2)CCC1 (stereo not drawn) [sibutramine, reference compound]
changes in body protein (lean (protein) mass) [4]: relatively unchanged

Rat amylin
changes in body protein (lean (protein) mass) [1]: preserved lean (protein) mass | changes in body protein (lean (protein) mass) [4]: increase in lean (protein) mass | plasma (serum) leptin levels, DIO prone animals ([5]; DIO prone rats): significantly reduced | plasma (serum) leptin levels, normal animals ([5]; normal HSD rats): significantly reduced | changes in body protein (lean (protein) mass) [6]: increase in lean (protein) mass | changes in body protein (lean (protein) mass) [7]: relatively equivalent increase in lean (protein) mass | changes in body protein (lean (protein) mass) [3]: relatively equivalent increase in lean (protein) mass

^14Leu-exendin-4 [Exendin-4 analog]
changes in body protein (lean (protein) mass) [7]: relatively equivalent increase in lean (protein) mass

recombinant methionyl human leptin [metreleptin]
rate of change in body weight, late rate (12-20 weeks) [2]: approached a late rate of zero
